Laboratory results taken from PubChem BioAssay AID2060492 (Molecular Pharmacology Branch, DTP, NCI, 2025).

Test system: 695427-040-R-J1-PDC complex spheroids, viability percent T/C
Assay: Anticancer human tumor 695427-040-R-J1-PDC patient-derived colon adenocarcinoma cell line growth inhibition [GQUAD]
Settings: for IC50: curve of first compound; for viability, T/C: stronger effect = lower value
Source text: DNA G-quadruplex Stabilizer Agents in Combinations in Complex Spheroids
A high-throughput screen of multi-cell type tumor spheroids was designed to identify active combinations of DNA G-quadruplex stabilizer agents and targeted small molecules. Complex spheroids include a stromal component modeled by human endothelial cells (HUVEC) and fibroblasts modeled by human mesenchymal stem cells (MSCs). The concentration ranges selected for each drug and investigational agent were based upon clinically achievable concentrations if the clinical Cmax of the agent was known.
Compounds. The drugs and investigational agents: pidnarulex (CX-5461; NSC782164), APTO-253 (NSC789042), BRACO-19 (NSC847499), peposertib (NSC802822), ceralasertib (NSC780249), elimusertib (NSC800525), camonsertib (NSC841442), AZD-1390 (NSC803789), olaparib (NSC753686), talazoparib (NSC767125), ART-558 (NSC835418), sotorasib (NSC818433), MRTX-1133 (NSC836407), SN-38 (NSC673596), topotecan (NSC609699), etoposide (NSC141540), doxorubicin (NSC123127), gemcitabine (NSC613327), 5-fluorouracil (NSC19893), paclitaxel (NSC125973), vemurafenib (NSC761431), panobinostat (NSC761190), R-306465 (JNJ-16241199; NSC773264), adavosertib (NSC754352), TP-3654 (NSC805149), carboplatin (NSC241240), KSQ-4279 (NSC840948), and staurosporine (NSC755774) were obtained from the National Cancer Institute (NCI) Developmental Therapeutics Program Chemical Repository (34). The FDA-approved anticancer drug set is available from the NCI Developmental Therapeutics Program. […] The stock solutions were prepared in dimethyl sulfoxide (DMSO, Sigma-Aldrich, St. Louis, MO, cat. D2650) at 800-fold the tested concentration and stored at -70 degrees C prior to their use. All drugs and investigational agents were tested over a range starting from a high concentration at or near the clinical Cmax and decreasing in half-log increments. If the clinical Cmax for an agent had not been determined, the highest concentration tested was 10 microM.
2.3 Cell Culture. All cells were maintained in an incubator at 37 degrees C and 5% CO2 with 95% humidity. The PDC lines were cultured according to standard operating procedures established by the NCI PDMR. All PDCs were thawed and cultured in Matrigel-coated flasks prepared with a working solution of 1X Ham's F-12 nutrient mix, without supplementation (Invitrogen, cat. 11765054), 100 U/mL penicillin-streptomycin (Invitrogen, cat. 15140122), and 2.5% Matrigel (Corning Inc., cat. 354248) for the first three passages. The 857933-349-R-J2-PDC line was cultured in 6C/Colon 1B media, which includes advanced DMEM/F-12 (Thermo Fisher Scientific, cat. 12634028), 10 mM HEPES (Thermo Fisher Scientific, cat. 15630080), 1X GlutaMAX supplement (Thermo Fisher Scientific, cat. 35050061), 0.1 mg/mL primocin (InvivoGen, cat. ant-pm-2), 10% defined fetal bovine serum, heat inactivated (HyClone Laboratories Inc., cat. SH30070.03HI), 50% L-WRN conditioned media (ATCC, cat. CRL-3276), 1.25 mM N-Acetyl-L-cysteine (Sigma-Aldrich, cat. A9165), 10 mM nicotinamide (Sigma-Aldrich, cat. N0636), 1X B-27 supplement (Thermo Fisher Scientific, cat. 17504044), 1X N-2 supplement (Thermo Fisher Scientific, cat. 17502048), 10 microM Y-27632 dihydrochloride (Tocris Bioscience, cat. 1254), and 50 ng/mL human EGF recombinant protein (Thermo Fisher Scientific, cat. PHG0311). The 485176-168-R4-J1-PDC line was cultured in Panc media, which includes all 6C/Colon 1B media components plus 100 ng/mL human FGF-10 (Thermo Fisher Scientific, cat. 100-26), 500 nM SB-431542 (Selleckchem, cat. S1067), and gastrin (Tocris, cat. 3006).
[…]
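Note: spheroids exposed to compounds for seven days before readout.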

CC(C)(O)C1CCC(Nc2ccc3ncc(-c4cccc(C(F)(F)F)c4)n3n2)CC1 (configuration not stated) + CN(C)c1ccc(Nc2c3ccc(NC(=O)CCN4CCCC4)cc3nc3cc(NC(=O)CCN4CCCC4)ccc23)cc1
IC50 (second compound 0.0316 µM): 1.59 µM | IC50 (second compound 0.1 µM): 1.67 µM | IC50 (second compound 0.316 µM): 1.61 µM | IC50 (second compound 1 µM): 1.59 µM | IC50 (second compound 3.16 µM): 1.53 µM | IC50 (second compound 10 µM): 1.47 µM | viability, T/C (second compound 0.0316 µM, first compound 0.0316 µM): 102% | viability, T/C (second compound 0.0316 µM, first compound 0.1 µM): 91.7% | viability, T/C (second compound 0.0316 µM, first compound 0.316 µM): 87.4% | viability, T/C (second compound 0.0316 µM, first compound 1 µM): 73.4% | viability, T/C (second compound 0.0316 µM, first compound 3.16 µM): 15.2% | viability, T/C (second compound 0.0316 µM, first compound 10 µM): 14.3% | viability, T/C (second compound 0.1 µM, first compound 0.0316 µM): 106% | viability, T/C (second compound 0.1 µM, first compound 0.1 µM): 97% | viability, T/C (second compound 0.1 µM, first compound 0.316 µM): 108% | viability, T/C (second compound 0.1 µM, first compound 1 µM): 78.8% | viability, T/C (second compound 0.1 µM, first compound 3.16 µM): 14.7% | viability, T/C (second compound 0.1 µM, first compound 10 µM): 12.1% | viability, T/C (second compound 0.316 µM, first compound 0.0316 µM): 105% | viability, T/C (second compound 0.316 µM, first compound 0.1 µM): 96.9% | viability, T/C (second compound 0.316 µM, first compound 0.316 µM): 94.9% | viability, T/C (second compound 0.316 µM, first compound 1 µM): 74% | viability, T/C (second compound 0.316 µM, first compound 3.16 µM): 15.2% | viability, T/C (second compound 0.316 µM, first compound 10 µM): 16.6% | viability, T/C (second compound 1 µM, first compound 0.0316 µM): 95% | viability, T/C (second compound 1 µM, first compound 0.1 µM): 100% | viability, T/C (second compound 1 µM, first compound 0.316 µM): 90.9% | viability, T/C (second compound 1 µM, first compound 1 µM): 74.9% | viability, T/C (second compound 1 µM, first compound 3.16 µM): 13% | viability, T/C (second compound 1 µM, first compound 10 µM): 13.6% | viability, T/C (second compound 3.16 µM, first compound 0.0316 µM): 91.9% | viability, T/C (second compound 3.16 µM, first compound 0.1 µM): 92.2% | viability, T/C (second compound 3.16 µM, first compound 0.316 µM): 89.5% | viability, T/C (second compound 3.16 µM, first compound 1 µM): 71.3% | viability, T/C (second compound 3.16 µM, first compound 3.16 µM): 13.2% | viability, T/C (second compound 3.16 µM, first compound 10 µM): 11.4% | viability, T/C (second compound 10 µM, first compound 0.0316 µM): 84.7% | viability, T/C (second compound 10 µM, first compound 0.1 µM): 81.3% | viability, T/C (second compound 10 µM, first compound 0.316 µM): 75.9% | viability, T/C (second compound 10 µM, first compound 1 µM): 69.4% | viability, T/C (second compound 10 µM, first compound 3.16 µM): 11.8% | viability, T/C (second compound 10 µM, first compound 10 µM): 10%
